Results on nine compounds are retold here after patent publication US10981891B2, “Antibacterial compounds and uses thereof” (priority 2016, dated 2021).

As a reminder, the MIC is the smallest concentration in the dilution series that meets the test's criterion for growth inhibition.

Values after ≈ are worked out from the molar mass of the structure shown.

The assay deals with M. tuberculosis H37Rv (ATCC 27294). Description: Microplate Alamar Blue assay (MABA), MIC against replicating M. tuberculosis H37Rv. Conditions: Mycobacterium tuberculosis, 168 h; H37Rv, MABA, 7H12 media, 7 days at 37° C.; MIC = lowest concentration reducing fluorescence by 90% relative to controls; read-out: M. tuberculosis MIC. The format is cell-based. On the technique in general: Alamar Blue is a resazurin reagent that responds to reducing activity.

With `COc1cc(C(O)(CCN(C)C)C(c2cc3cc(C#N)ccc3nc2OC)c2cccc(C)c2F)cc(OC)n1` (stereo not drawn) [Example 86, 3-(2-(2,6-Dimethoxypyridin-4-yl)-4-(dimethylamino)-1-(2-fluoro-3-methylphenyl)-2-hydroxybutyl)-2-methoxyquinoline-6-carbonitrile], the MIC was less than 0.02 µg/mL.

`COc1cc(C(O)(CCN(C)C)C(c2cc3cc(C#N)ccc3nc2OC)c2cccc(OC)c2F)cc(SC)n1` (stereo not drawn) [Example 87, 3-(4-(Dimethylamino)-1-(2-fluoro-3-methoxyphenyl)-2-hydroxy-2-(2-methoxy-6-(methylthio)pyridin-4-yl)butyl)-2-methoxyquinoline-6-carbonitrile]: the MIC came to 0.02 µg/mL (≈ 0.0347 µM).

Take `COc1cc(C(O)(CCN(C)C)C(c2cc3cc(C#N)ccc3nc2OC)c2cccc(C)c2F)cc(OC(F)F)n1` (stereo not drawn) [Example 88, 3-(2-(2-(Difluoromethoxy)-6-methoxypyridin-4-yl)-4-(dimethylamino)-1-(2-fluoro-3-methylphenyl)-2-hydroxybutyl)-2-methoxyquinoline-6-carbonitrile]: the MIC turned out to be 0.01 µg/mL (≈ 0.0172 µM).

With `COc1nc2ccc(C#N)cc2cc1C(c1cccc(C)c1F)C(O)(CCN(C)C)c1cc(SC)nc(SC)c1` (stereo not drawn) [Example 89, 3-(2-(2,6-Bis(methylthio)pyridin-4-yl)-4-(dimethylamino)-1-(2-fluoro-3-methylphenyl)-2-hydroxybutyl)-2-methoxyquinoline-6-carbonitrile], the MIC amounted to 0.02 µg/mL (≈ 0.0347 µM).

On to `COc1nc2ccc(C#N)cc2cc1C(c1cccc2c1OCCO2)C(O)(CCN(C)C)c1cc(SC)nc(SC)c1` (stereo not drawn) [Example 90, 3-(2-(2,6-Bis(methylthio)pyridin-4-yl)-1-(2,3-dihydrobenzo[b][1,4]dioxin-5-yl)-4-(dimethylamino)-2-hydroxybutyl)-2-methoxyquinoline-6-carbonitrile], for which the MIC is 0.01 µg/mL (≈ 0.0166 µM).

Turning to `COc1cc(C(O)(CCN(C)C)C(c2cc3cc(C#N)ccc3nc2OC)c2cccc3c2OCCO3)cc(OC(F)F)n1` (stereo not drawn) [Example 91, 3-(2-(2-(Difluoromethoxy)-6-methoxypyridin-4-yl)-1-(2,3-dihydrobenzo[b][1,4]dioxin-5-yl)-4-(dimethylamino)-2-hydroxybutyl)-2-methoxyquinoline-6-carbonitrile], the MIC was determined as 0.02 µg/mL (≈ 0.033 µM).

Regarding `CNCCC(O)(c1cc(OC)nc(OC)c1)C(c1cc2cc(C#N)ccc2nc1OC)c1cccc2c1OCCO2` (stereo not drawn) [Example 93, 3-(1-(2,3-Dihydrobenzo[b][1,4]dioxin-5-yl)-2-(2,6-dimethoxypyridin-4-yl)-2-hydroxy-4-(methylamino)butyl)-2-methoxyquinoline-6-carbonitrile], the MIC turned out to be 0.01 µg/mL (≈ 0.018 µM).

On to `COc1cc(C(O)(CCN(C)C)C(c2cc3cc(C#N)ccc3nc2OC)c2ccnc(OC)c2OC)cc(N(C)C)n1` (stereo not drawn) [Example 94, 3-(1-(2,3-Dimethoxypyridin-4-yl)-4-(dimethylamino)-2-(2-(dimethylamino)-6-methoxypyridin-4-yl)-2-hydroxybutyl)-2-methoxyquinoline-6-carbonitrile], for which the minimal inhibitory concentration (MIC) stood at 0.06 µg/mL (≈ 0.102 µM).

In the case of `CNCCC(O)(c1cc(OC)nc(OC)c1)C(c1cccc(F)c1)c1cc2cc(C#N)ccc2nc1OC` (stereo not drawn) [Example 97, 3-(2-(2,6-Dimethoxypyridin-4-yl)-1-(3-fluorophenyl)-2-hydroxy-4-(methylamino)butyl)-2-methoxyquinoline-6-carbonitrile], the MIC came to 0.01 µg/mL (≈ 0.0194 µM).
